# Test results taken from US20100115635A1, “Methods for Assessing the Delivery of Exogenous Agents” (Abbott Laboratories, priority 2007, published 2010).
# Test system: MDA-tetR-ODC/Luc liver tumors
# Assay: bioluminescence imaging of MDA-tetR-ODC/Luc liver tumors
# Assay type: in vivo, mice
# Conditions: 4 days after doxycycline treatment
# From the text: A MDA-tetR-ODC/Luc cell line was created from MDA-MB435-SLM-derived cell line with a stably integrated tetR-ODC expression cassette and a tet-responsive firefly luciferase reporter. FIG. 6A). The MDA-tetR-ODC/Luc cells were inoculated into skid mice to establish liver tumors. The mice were imaged before doxycycline treatment (top panel of FIG. 6A) or 4 days after doxycycline treatment (bottom panel of FIG. 6A). […] FIG. 6B) Monitoring target knockdown in the MDA-tetR-ODC/Luc cell-derived liver tumors using imaging. The MDA-tetR-ODC/Luc cells were inoculated into skid mice to establish liver tumors. […] Mice were imaged before dosing and 2 days after the last dose. […] The mice were imaged before doxycycline treatment (top panel of FIG. 6B) or 4 days after doxycycline treatment (bottom panel of FIG. 6B).
smiles,measurement,value
C[C@H]1c2cccc(O)c2C(=O)C2=C(O)[C@]3(O)C(=O)C(C(N)=O)=C(O)[C@@H](N(C)C)[C@@H]3[C@@H](O)[C@@H]21 [doxycycline],increase of luminescent signal compared to untreated mice,more than 100 fold
